Source: patent publication US9266817B2, “Catecholamine derivatives for obesity and neurological disorders” (EMORY UNIVERSITY, priority 2009, dated 2016)

Experiments:
[1] = biological target: T1, TrkB extracellular domain (ECD) (Homo sapiens, UniProt Q16620); assay: In vitro binding assay with purified TrkB ECD and 3H-ligands; conditions: purified ECD, 3H-ligand
T1 construct: purified ECD (extracellular domain) and ICD (intracellular domain) proteins from Trk receptors
Procedure: (§1) Purified TrkA and TrkB ECD or ICD proteins were incubated with different ^3H-catecholamines at 25° C. for 30 minutes in 1 ml of binding buffer (50 mM Tris-HCl, pH 7.4, 100 mM NaCl, 5 nM ^3H-catecholamines (32000 cpm)). After the incubation, the reaction mixture was loaded on a Whatman glass-fiber filter (GF-B) (Whatman Inc.; Piscataway, N.J.). The mixture was washed with 3×5 ml washing buffer (50 mM Tris-HCl, pH 7.4). The dried filter paper was put into a small vial and subjected to liquid scintillation counter analysis. The value of the dissociate constant and the number of sites were obtained from Scatchard plots by using the equation r/[L]free =n/Kd−r/Kd, where r is the ratio of the concentration of bound ligand to the total protein concentration and n is the number of binding sites.
(§2) To determine whether catecholamines bind TrkB directly, an in vitro binding assay was conducted with purified ECD (extracellular domain) and ICD (intracellular domain) proteins from Trk receptors and ^3H-catecholamines. […] To determine whether the binding by catecholamines to TrkB receptor caused dimerization, GST-TrkB was co-transfected into HEK293 cells with HA-TrkB, followed by BDNF or monoamines treatment for 15 minutes.

TrkB [2] = biological target: T2, TrkB (Rattus norvegicus, UniProt Q63604); assay: TrkB activation in cortical neurons after pretreatment with antibodies, receptor antagonists, transporter inhibitors or EDTA (anti-p-TrkB-Y-816 immunoblot); assay type: cell-based; conditions: BDNF-IgG 30 minutes, then BDNF 10 ng/ml or catecholamines 100 nM, 15 minutes
T2 construct: endogenous in cells; host or cells: primary rat cortical and hippocampal neurons
From the text: (§3) Both antidepressants and exercise increase hippocampal BDNF mRNA expression through enhanced 5-HT and/or NE neurotransmission (Siuciak et al., Pharmacol. Biochem. Behav., 56:131-137, 1997; Dias et al., Neuropharmacology, 45:553-563, 2003; Ivy et al., Pharmacol. Biochem. Behav., 75:81-88, 2003; Garza et al., Pharmacol. Biochem. Behav., 77:209-220, 2004). If catecholamines activated TrkB signaling indirectly by promoting BDNF generation, then scavenging BDNF with its specific antibody would be expected to diminish catecholamines-mediated activation of TrkB. Cultured cortical neurons were pretreated with BDNF-IgG for 30 minutes followed by exposure to BDNF (10 ng/ml) or catecholamines (100 nM) for 15 minutes. […] It was then determined whether catecholamines could activate TrkB in neurons cultured from mice carrying a null mutation of BDNF.
To further investigate the specificity of catecholamines in inducing TrkB activation, cortical neurons were pretreated with control IgG or norepinephrine IgG, a rabbit polyclonal antibody for norepinephrine, followed by catecholamines.
(§4) It was then determined whether catecholamines could activate TrkB in neurons cultured from mice carrying a null mutation of NET.
(§5) The cell lysates were analyzed by immunoblotting with anti-p-TrkB-Y-816.
as §5
A group of primary cortical neurons were pretreated with 1 mM EDTA, and another group of primary cortical neurons were not pretreated. Both groups of primary cortical neurons were then treated with either Zn (100 μM) or a catecholamine (100 nM) for 15 minutes. The neuronal cell lysates were analyzed by immunoblotting with anti-p-TrkB-Y-816 antibody.

TrkB [3] = biological target: T3, TrkB (Mus musculus, UniProt P15209); assay: TrkB activation in cortical neurons cultured from BDNF-null mice; assay type: cell-based; conditions: 15 min
T3 construct: endogenous in cells; host or cells: primary cortical neurons from BDNF-null, TrkB +/- cross, TrkC knockout and NET -/- mice
From the text: as §3

TrkB [4] = biological target: T4, TrkB (Mus musculus, UniProt P15209, F616A); assay type: in vivo; conditions: 1NMPP1 50 μM; for TrkB tyrosine phosphorylation/activation in mice: L-DOPA 50 mg/kg, DOPS 100 mg/kg
T4 construct: from tissue; host or cells: mouse brain
Procedure: The DOPS concentration was 20 mg/ml, the vitamin C concentration was 2 mg/ml, and the benserazide concentration was 5 mg/ml. The vitamin C prevents oxidation of the DOPS, and the benserazide is a peripheral inhibitor of AADC and restricts the production of NE from DOPS to the brain. The compounds were added to a tube, and 20 μl of 10 M HCl was added to each ml of DOPS solution. The appropriate amount of water was added to the tube, and then HCl was added to achieve the desired volume. For example, to make 1 mL of a DOPS solution, 20 mg DOPS, 2 mg vitamin C, and 5 mg benserazide were added to a tube, followed by 980 μL of water and 20 μL of 10 M HCl. The solution was vortexed until all DOPS was dissolved. The DOPS solution was injected subcutaneously in a volume of 50 μl/g of mouse. The appropriate amount of DOPS solution was pipetted into a clean tube, followed by the amount of 10 M NaOH required to exactly neutralize the HCl. The solution was then shaken. The amount of 10 M NaOH is the weight of the mouse in microliters. For example, for a 20 g mouse, pipet 1 ml of the DOPS solution is pipetted into a tube and 20 μL of 10 M NaOH is added. For a 30 g mouse, 1.5 mL of the DOPS solution is pipetted into a tube and 30 μl of 10 M NaOH is added. Two to four month-old TrkBF616A mice were pretreated with 1NMPP1 in drinking water (50 μM) 1 day before L-DOPA (50 mg/kg) or DOPS (100 mg/kg) intraperitoneal injection. At times of 2 hours and 5 hours after drug administration, the L-DOPA or DOPS-treated mice were sacrificed, respectively. The brain lysates were prepared and analyzed by immunoblotting against anti-phospho-TrkB Y816 and TrkA Y794 antibodies.
(§6) TrkB F616A mice were pretreated with 1NMPP1 (50 μM) before L-DOPA or DOPS administration.

TrkB F616A [5] = biological target: T5, TrkB F616A (Mus musculus, UniProt P15209); assay: TrkB phosphorylation in TrkB F616A or TrkA F592A cortical neurons pretreated with K252a or 1NMPP1; assay type: cell-based, mice; conditions: TrkA F592A neurons
T5 construct: endogenous in cells; host or cells: primary cortical neurons from TrkB F616A knock-in mice
Procedure: as §6
(§7) On day 7, the primary cortical neurons were pretreated with 100 nM K252a or 1NMPP1 for 30 min, followed by 500 nM ADPP and DDAP. Cell lysates were analyzed by Western blotting.

TrkB F616A [6] = biological target: T6, TrkB F616A (Mus musculus, UniProt P15209, F616A); assay: as above; assay type: cell-based, mice; conditions: TrkB F616A knock-in cortical neurons
T6 construct: endogenous in cells; host or cells: primary cortical neurons from TrkB F616A knock-in mice
Procedure: as §6, §7

[7] = tested on: TrkB F616A cortical neurons; assay: Glutamate-provoked apoptosis of TrkB F616A cortical neurons (TUNEL assay); assay type: cell-based, mice; set-up: Effect of inhibitor on protective action of norepinephrine: dose or concentration left out as unconfirmed; conditions: glutamate overnight
Procedure: Norepinephrine has neuroprotective activity against oxidative stress-induced neuronal apoptosis. To investigate whether this protective action by norepinephrine is mediated through TrkB, apoptosis of TrkB F616A cortical neurons was monitored. Primary cortical neurons were pretreated with inhibitors K252a or 1NMPP1 followed by overnight treatment with 50 mM glutamate.

TrkB F616A knockin mice = assay: Kainic acid-induced neuronal apoptosis in TrkB F616A knockin mice (immunoblotting and Caspase-3 ELISA); assay type: in vivo; conditions: 1NMPP1 16.6 ng/kg 2 days before
Procedure: To determine whether Compound I-11 (ADPP) and Compound I-8 (DDAP) protect neurons from KA-induced apoptosis, TrkB F616A knockin mice were pretreated with inhibitor 1NMPP1 (16.6 ng/kg) 2 days before the experiment. Compound I-8 (DDAP) or Compound I-11 (ADPP) (50 mg/kg) was orally injected into the mice 2 hours before kainic acid (KA) administration (20 mg/kg). Brain lysates were analyzed by immunoblotting and Caspase-3 ELISA. […] The extent of the protective effect correlates with TrkB activation status by these compounds. Active Caspase-3 ELISA correlated with the immunoblotting results (FIG. 28B, right panel).

mice = assay: Forced swim test; assay type: in vivo; conditions: TrkB F616A knockin mice
Procedure: Accumulating evidence supports that BDNF plays an essential role in mediating antidepressants' therapeutic effects. Infusion of exogenous BDNF into hippocampus or brain stem has antidepressant-like behavioral effect. A forced swim test is broadly used for screening of potential antidepressant drugs and is widely used to measure antidepressant activity. To explore whether Compound I-11 (ADPP) and Compound I-8 (DDAP) have antidepressant effects like BDNF, forced swim tests were conducted. Adult male mice (2-3 months old, n=8) were randomly submitted, without a pre-swim, to a forced swim test of 6 minutes with immobility recorded in the last 4 minutes. Mice were injected intraperitoneally with saline, Compound I-11 (20 mg/kg), or Compound I-8 (20 mg/kg). The mice were allowed to adapt to the test room for 2 days, and the mice were placed in a clear glass cylinder with a diameter of 16 cm, half-filled with clear water at 24° C.
To assess whether the behavior responses caused by catecholamine derivatives is mediated by TrkB receptor, TrkB F616A knockin mice were utilized. The mice were subjected to saline or 1NMPP1 inhibitor pretreatment.

[8] = biological target: T7, TrkB intracellular domain (ICD) (Homo sapiens, UniProt Q16620); assay: In vitro binding assay with purified TrkB ICD and 3H-ligands (Scatchard plot)
T7 construct: purified ECD (extracellular domain) and ICD (intracellular domain) proteins from Trk receptors
Procedure: as §1, §2

TrkA = TrkA (Homo sapiens, UniProt P04629); conditions: transfected HEK293 cells
Procedure: as §2

TrkC = TrkC (Homo sapiens, UniProt Q16288); conditions: transfected HEK293 cells
Procedure: as §2

TrkB [9] = biological target: T3, TrkB; assay type: cell-based, mice; conditions: compared to wild-type control neurons
Procedure: as §4

TrkB [10] = biological target: T8, TrkB (Homo sapiens, UniProt Q16620); assay: Tyrosine phosphorylation of TrkB in transfected HEK293 cells; assay type: cell-based; set-up: expressed in transfected cells; host or cells: HEK293
Procedure: as §2
Target sequence in this assay (Q16620 32-822, species assumed): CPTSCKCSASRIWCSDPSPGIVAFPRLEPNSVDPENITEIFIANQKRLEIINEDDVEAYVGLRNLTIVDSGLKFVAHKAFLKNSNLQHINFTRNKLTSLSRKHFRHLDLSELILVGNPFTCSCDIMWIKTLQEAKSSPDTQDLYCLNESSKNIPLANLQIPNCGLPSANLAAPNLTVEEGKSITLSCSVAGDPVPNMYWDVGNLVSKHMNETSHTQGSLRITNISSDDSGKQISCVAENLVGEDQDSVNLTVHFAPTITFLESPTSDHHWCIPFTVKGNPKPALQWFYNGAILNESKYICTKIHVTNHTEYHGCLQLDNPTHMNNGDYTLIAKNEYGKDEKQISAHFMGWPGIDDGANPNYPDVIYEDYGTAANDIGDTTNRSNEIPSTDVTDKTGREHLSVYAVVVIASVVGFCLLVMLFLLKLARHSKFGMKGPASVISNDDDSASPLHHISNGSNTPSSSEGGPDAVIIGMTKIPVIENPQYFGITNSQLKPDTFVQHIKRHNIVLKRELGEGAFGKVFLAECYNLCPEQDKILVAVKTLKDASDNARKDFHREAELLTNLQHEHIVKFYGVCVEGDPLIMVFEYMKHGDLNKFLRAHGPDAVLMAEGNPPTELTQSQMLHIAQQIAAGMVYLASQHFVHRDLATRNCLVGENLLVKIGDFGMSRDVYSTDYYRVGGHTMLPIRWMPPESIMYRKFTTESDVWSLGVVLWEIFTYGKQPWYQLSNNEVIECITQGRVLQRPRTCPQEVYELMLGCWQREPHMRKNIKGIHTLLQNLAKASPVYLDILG

TrkB [11] = biological target: T8, TrkB; assay: Activation of transfected TrkB in HEK293 cells with or without DAT or NET; assay type: cell-based; set-up: expressed in transfected cells; host or cells: HEK293; conditions: NET transfected HEK293 cells
Target sequence in this assay (Q16620 32-822, species assumed): as above

TrkB [12] = biological target: T2, TrkB; assay: Immunofluorescent staining with anti-phospho-TrkB Y816 in primary hippocampal neurons; assay type: cell-based; conditions: 300 nM, 30 min
Procedure: Primary Rat Cortical and Hippocampal Neuron Cultures
Primary hippocampal neurons were seeded on poly-L-lysine coated coverslips in a 12-well plate. After 7 days in vitro, the neurons were treated with 100 ng/ml BDNF or variety of neurotransmitters and 7,8-dihydroxyflavone compound (500 nM) for 30 min, and then washed with PBS. Cells were fixed with 3% formaldehyde in PBS at room temperature for 15 min. The cells were then permeabilized and blocked by 0.4% Triton X-100 and 2% FBS in PBS at room temperature for 15 minutes, washed with PBS three times and treated with anti-MAP2 (1:200) and anti-phospho-TrkB antibodies (1:100). After staining with FITC- or Rhodamine-conjugated secondary antibody, the coverslips were mounted on slides. Fluorescent images were taken by OLYMPUS IX71 fluorescence microscope (Olympus; Center Valley, Pa.).
To explore whether monoamine neurotransmitters, including catecholamines (see, e.g., FIG. 1), could stimulate TrkB activation, hippocampal neurons were treated with 300 nM of catecholamines, serotonin, and melatonin for 30 min.

TrkB [13] = biological target: T8, TrkB; assay: TrkB dimerization, co-immunoprecipitation of GST-TrkB and HA-TrkB in HEK293 cells; assay type: cell-based; set-up: GST; HA; expressed in transfected cells; host or cells: HEK293; conditions: 15 minutes
Procedure: as §2
Target sequence in this assay (Q16620 32-822, species assumed): as above
Target sequence in this assay (Q16620 32-822, species assumed): as above

T4 sequence (P15209 32-821 F616A): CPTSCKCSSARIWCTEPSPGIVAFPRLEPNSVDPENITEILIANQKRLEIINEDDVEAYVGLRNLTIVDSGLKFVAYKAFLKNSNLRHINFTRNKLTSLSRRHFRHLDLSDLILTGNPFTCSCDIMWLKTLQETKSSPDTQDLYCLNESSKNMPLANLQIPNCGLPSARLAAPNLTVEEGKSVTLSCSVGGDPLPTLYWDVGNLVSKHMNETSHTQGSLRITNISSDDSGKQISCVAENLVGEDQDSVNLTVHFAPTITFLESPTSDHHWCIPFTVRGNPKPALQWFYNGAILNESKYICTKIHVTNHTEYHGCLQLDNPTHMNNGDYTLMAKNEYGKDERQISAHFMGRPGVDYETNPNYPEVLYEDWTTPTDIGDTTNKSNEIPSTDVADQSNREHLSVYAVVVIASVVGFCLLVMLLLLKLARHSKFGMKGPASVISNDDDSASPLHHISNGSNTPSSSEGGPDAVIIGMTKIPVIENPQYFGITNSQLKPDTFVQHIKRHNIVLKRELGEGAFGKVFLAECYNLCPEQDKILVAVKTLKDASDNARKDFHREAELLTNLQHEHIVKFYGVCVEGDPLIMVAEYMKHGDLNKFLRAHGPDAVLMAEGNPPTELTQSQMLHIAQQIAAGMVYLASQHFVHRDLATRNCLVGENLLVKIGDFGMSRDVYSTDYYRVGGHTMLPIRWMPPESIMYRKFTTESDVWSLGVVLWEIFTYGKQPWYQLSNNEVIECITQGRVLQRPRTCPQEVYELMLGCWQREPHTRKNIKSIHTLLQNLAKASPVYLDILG
T3 sequence (P15209 32-821): as the sequence (P15209 32-821 F616A) above, with A585F counted along it
T2 sequence (Q63604 32-821): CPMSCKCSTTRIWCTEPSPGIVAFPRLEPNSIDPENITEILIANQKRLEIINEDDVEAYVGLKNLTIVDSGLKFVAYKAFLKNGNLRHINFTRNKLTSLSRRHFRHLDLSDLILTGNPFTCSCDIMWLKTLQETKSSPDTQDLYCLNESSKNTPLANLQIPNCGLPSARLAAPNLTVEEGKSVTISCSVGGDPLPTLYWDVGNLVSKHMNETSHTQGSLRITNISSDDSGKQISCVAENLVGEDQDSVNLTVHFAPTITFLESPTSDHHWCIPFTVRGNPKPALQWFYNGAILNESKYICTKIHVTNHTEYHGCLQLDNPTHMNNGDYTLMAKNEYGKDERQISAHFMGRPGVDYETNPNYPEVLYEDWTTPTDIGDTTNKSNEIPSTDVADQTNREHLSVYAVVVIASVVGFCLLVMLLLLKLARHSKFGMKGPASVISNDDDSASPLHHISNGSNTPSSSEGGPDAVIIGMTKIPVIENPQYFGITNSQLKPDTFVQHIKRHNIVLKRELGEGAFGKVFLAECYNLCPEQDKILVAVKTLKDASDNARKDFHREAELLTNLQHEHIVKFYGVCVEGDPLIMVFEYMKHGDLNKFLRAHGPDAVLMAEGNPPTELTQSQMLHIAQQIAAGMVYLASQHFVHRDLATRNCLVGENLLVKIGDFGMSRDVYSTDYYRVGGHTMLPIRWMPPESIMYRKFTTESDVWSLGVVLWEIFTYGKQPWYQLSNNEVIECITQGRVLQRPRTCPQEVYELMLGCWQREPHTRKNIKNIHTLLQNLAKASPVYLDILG
T7 sequence (Q16620 455-822 limits assumed): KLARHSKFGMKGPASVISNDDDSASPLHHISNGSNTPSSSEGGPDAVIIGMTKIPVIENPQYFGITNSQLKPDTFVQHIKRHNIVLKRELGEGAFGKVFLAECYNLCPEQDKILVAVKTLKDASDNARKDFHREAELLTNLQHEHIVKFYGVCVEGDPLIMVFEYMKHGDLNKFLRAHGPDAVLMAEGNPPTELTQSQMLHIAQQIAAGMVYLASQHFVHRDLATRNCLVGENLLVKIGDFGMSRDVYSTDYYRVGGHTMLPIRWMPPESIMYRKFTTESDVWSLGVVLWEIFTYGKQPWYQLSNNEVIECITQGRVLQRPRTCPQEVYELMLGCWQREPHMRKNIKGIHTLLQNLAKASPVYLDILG
T6 sequence (P15209 32-821 F616A): as the sequence (P15209 32-821 F616A) above
T5 sequence (P15209 32-821 F616A): as above
T1 sequence (Q16620 32-430 limits assumed): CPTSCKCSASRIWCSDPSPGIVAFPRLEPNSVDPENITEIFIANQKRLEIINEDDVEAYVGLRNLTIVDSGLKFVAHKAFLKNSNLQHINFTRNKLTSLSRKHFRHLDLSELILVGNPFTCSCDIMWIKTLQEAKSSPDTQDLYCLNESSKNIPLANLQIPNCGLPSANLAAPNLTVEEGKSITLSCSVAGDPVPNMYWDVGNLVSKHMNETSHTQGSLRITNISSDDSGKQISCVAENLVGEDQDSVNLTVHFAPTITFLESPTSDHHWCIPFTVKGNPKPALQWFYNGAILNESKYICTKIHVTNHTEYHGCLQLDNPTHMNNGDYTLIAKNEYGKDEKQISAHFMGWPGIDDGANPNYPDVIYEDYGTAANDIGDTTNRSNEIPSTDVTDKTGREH
Chain of TrkC (Q16288 32-839, species assumed): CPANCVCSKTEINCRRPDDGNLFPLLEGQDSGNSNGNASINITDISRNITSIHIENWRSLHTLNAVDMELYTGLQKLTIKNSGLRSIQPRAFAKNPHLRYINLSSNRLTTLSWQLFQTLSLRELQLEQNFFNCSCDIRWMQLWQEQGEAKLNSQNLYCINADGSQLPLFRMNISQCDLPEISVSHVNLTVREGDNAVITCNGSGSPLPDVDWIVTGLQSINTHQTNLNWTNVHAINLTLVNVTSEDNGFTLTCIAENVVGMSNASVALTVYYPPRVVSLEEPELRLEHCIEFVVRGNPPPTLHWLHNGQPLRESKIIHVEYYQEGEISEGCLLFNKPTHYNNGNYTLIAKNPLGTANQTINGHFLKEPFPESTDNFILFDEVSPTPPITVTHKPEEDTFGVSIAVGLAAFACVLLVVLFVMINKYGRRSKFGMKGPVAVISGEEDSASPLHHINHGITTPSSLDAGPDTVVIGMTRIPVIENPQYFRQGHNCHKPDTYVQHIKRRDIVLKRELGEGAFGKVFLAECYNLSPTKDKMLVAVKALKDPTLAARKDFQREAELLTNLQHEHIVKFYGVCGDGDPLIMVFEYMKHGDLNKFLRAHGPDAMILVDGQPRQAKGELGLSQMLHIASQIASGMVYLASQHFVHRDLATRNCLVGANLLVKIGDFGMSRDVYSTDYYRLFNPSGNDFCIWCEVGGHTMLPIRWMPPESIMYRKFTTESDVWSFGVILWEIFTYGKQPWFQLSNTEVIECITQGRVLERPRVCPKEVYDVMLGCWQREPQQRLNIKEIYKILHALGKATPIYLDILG
Chain of TrkA (P04629 33-796, species assumed): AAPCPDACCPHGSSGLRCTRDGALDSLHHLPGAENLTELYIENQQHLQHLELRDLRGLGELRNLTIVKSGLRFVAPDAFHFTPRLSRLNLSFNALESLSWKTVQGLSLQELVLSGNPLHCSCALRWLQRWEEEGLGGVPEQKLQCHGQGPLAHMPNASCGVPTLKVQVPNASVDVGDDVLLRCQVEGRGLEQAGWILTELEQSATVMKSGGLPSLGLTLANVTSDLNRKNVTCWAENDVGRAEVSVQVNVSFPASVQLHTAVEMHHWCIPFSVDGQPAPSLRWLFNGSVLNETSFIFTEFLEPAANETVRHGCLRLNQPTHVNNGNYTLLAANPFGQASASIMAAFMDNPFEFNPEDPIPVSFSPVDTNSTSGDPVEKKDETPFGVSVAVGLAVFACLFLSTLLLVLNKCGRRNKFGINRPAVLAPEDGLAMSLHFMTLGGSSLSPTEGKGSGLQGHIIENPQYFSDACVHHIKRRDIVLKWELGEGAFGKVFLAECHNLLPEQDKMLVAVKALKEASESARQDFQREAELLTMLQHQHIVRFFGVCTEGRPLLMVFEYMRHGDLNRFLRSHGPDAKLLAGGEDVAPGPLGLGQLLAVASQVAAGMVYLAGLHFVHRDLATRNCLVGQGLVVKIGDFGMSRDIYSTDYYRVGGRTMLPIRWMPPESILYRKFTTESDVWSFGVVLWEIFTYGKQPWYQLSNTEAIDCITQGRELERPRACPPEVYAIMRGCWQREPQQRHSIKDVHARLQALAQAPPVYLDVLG

O=c1cc(-c2ccccc2)oc2c(O)c(O)ccc12 [7,8-dihydroxyflavone]
Binding to ECD of TrkB receptor [1]: selectively bound
Effect of BDNF-IgG pretreatment on phosphorylation of TrkB induced by the substance (TrkB [2]): had no effect
Activation of TrkB in BDNF-null cortical neurons (TrkB [3]): evident activation of TrkB
TrkB tyrosine phosphorylation/activation in mice (TrkB [4]): provoked evident TrkB activation

CC(C)(C)n1nc(Cc2cccc3ccccc23)c2c(N)ncnc21 [Compound 1NMPP1]
Effect of inhibitor on catecholamine-induced TrkB activation (TrkB F616A [5]): but not by 1NMPP1
Effect of inhibitor on catecholamine-provoked TrkB phosphorylation (TrkB F616A [6]): selectively reduced
TrkB tyrosine phosphorylation/activation in mice (TrkB [4]): had no effect
Effect of 1NMPP1 pretreatment on TrkB activation by 7,8-dihydroxyflavone, L-DOPA and DOPS (TrkB [4]; TrkB F616A mice): markedly diminished TrkB activation
Effect of inhibitor on protective action of norepinephrine [7]: abolished
Effect of 1NMPP1 pretreatment on protective effect of Compounds I-8 and I-11 (TrkB F616A knockin mice): blocked the protective effect
Immobility times, 1NMPP1 versus saline treated control groups (mice): No significant difference

CNC[C@H](O)c1ccc(O)c(O)c1 [epinephrine]
Binding to ICD of TrkB receptor ([8]; purified ICD, 3H-ligand): strongest binding activity
Kd ([8]; purified protein, 25° C., 30 minutes, read-out: TrkB binding constants (Scatchard plot)): 1100 nM
Tyrosine phosphorylation of TrkA (TrkA): but not in TrkA
Tyrosine phosphorylation of TrkC (TrkC): but not in TrkA or TrkC
TrkB activation in NET -/- neurons (TrkB [9]): completely blocked
Tyrosine phosphorylation of TrkB (TrkB [10]): elicited tyrosine phosphorylation
Increase of stimulatory activity by overexpression of NET compared to control cells (TrkB [11]): approximately 100 fold

B1: BDNF: Brain-derived neurotrophic factor, natural ligand of TrkB (protein, UniProt P23560 19-247, looked up)
Neurotrophic factor BDNF …: APMKEANIRGQGGLAYPGVRTHGTLESVNGPKAGSRGLTSLADTFEHVIEELLDEDQKVRPNEENNKDADLYTSRVMLSSQVPLEPPLLFLLEEYKNYLDAANMSMRVRRHSDPARRGELSVCDSISEWVTAADKKTAVDMSGGTVTVLEKVPVSKGQLKQYFYETKCNPMGYTKEGCRGIDKRHWNSQCRTTQSYVRALTMDSKKRIGWRFIRIDTSCVCTLTIKRGR
TrkB tyrosine phosphorylation (immunofluorescent staining) (TrkB [12]): strongly triggered TrkB tyrosine phosphorylation
Effect of BDNF-IgG pretreatment on phosphorylation of TrkB induced by the substance (TrkB [2]): abolished
Activation of TrkB in BDNF-null cortical neurons (TrkB [3]): evident activation of TrkB
TrkB homodimerization (TrkB [13]): elicited TrkB homodimerization
